Where two headings read alike, the source gives them in different places.
Assays:
[1] = system: V79mzhu1B1 cells (express the enzyme CYP1B1)
Description: (§1) The cytotoxicity assay method used was a modification of the MTT cytotoxicity assay (Carmichael et al., 1987, Cancer Research, 47: 936). […] Compound stocks were made up as 100 mM in DMSO and stored for no more than one month at 4° C. The plates were then incubated at 37° C., 5% CO2, 100% humidity for a further 48 hours followed by washing by immersion 3 times in Dulbecco's PBS (phosphate buffered saline) A. 50 μl of RPMI 1640 w/o phenol red (Roswell Park Memorial Institute Medium 1640, Life Science International) with 2 mg/ml MTT was then added for four hours as above, excess MTT removed by aspiration and 125 μl of DMSO added on a vortex for 30 minutes to solubilize the product. The absorbance at A450 was recorded and the results expressed as a % survival of carrier only treated controls.

[2] = system: V79mz cells (parental cell line which does not express CYP1B1)
Description: as §1

[3] = target: T1, CYP1B1 (microsomal preparation of human tumour tissue expressing the CYP1B1 enzyme) (Homo sapiens, UniProt Q16678); details: pH 7.6
T1 sequence (Q16678 1-543): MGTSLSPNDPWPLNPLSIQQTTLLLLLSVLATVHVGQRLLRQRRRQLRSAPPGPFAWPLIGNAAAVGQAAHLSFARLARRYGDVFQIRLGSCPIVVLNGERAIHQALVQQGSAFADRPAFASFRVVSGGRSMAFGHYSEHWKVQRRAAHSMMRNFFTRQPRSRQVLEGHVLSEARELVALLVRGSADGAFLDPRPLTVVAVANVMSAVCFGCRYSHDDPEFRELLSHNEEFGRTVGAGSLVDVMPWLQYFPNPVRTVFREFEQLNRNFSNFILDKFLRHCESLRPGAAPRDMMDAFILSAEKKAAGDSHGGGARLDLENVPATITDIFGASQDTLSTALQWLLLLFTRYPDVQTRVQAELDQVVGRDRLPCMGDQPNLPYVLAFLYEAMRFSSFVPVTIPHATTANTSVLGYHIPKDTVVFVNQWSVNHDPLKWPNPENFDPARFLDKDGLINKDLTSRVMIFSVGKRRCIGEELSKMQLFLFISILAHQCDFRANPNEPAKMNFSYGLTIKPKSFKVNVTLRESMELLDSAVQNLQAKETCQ
Description: (§2) A microsomal preparation of human tumour tissue expressing the CYP1B1 enzyme was prepared essentially as described by the method of Barrie et al. (1989. J. Steroid Biochem., 6: 1191-1195)
(§3) Experiment were carried out at 37° C., under yellow light.
(§4) An array of 1.5 ml centrifuge tubes were set up in a water bath shaker under aerobic conditions. To each tube was then added 500 μl of pH 7.6 buffer (0.1 M NaK2PO4), followed by NADPH (5 μl of a 25 mM stock solution). The microsomal preparation (80 μl) was then added and the tubes preincubated for 5 minutes at 37° C. The prodrug substrate was then added (10 μl of a 5 mM stock solution) and incubated for 1 hour at 37° C. After 1 hour the tubes were transferred to an ice/water cooling bath (0° C.). The tubes were then centrifuged at 1 5,000 rpm for 30 minutes. A sample of the supernatant (100 μl) was then taken and analysed by HPLC.
(§5) HPLC conditions: Spherisorb C18 (25 cm×4.6 mm id), used without guard column. Flow rate 1 ml/min. Eluent 75% 0.1 M KH2PO4 and 25% acetonitrile.

[4] = MTT cytotoxicity assay, parental cell line not expressing CYP1B1; details: Chinese hamster, V79mz cells (parental line that does not express CYP1B1)
Description: as §1

[5] = target: T1, CYP1B1 (microsomal preparation of human tumour tissue expressing the CYP1B1 enzyme); test: Metabolism studies with microsomal preparation of human tumour tissue, HPLC detection of the hydroxylated metabolite; details: tumour microsomes, NADPH, pH 7.6, 1 hour at 37° C., confirmed by synthesis of authentic metabolite
Description: as §2, §3, §4, §5

[6] = MTT cytotoxicity assay, cell line expressing CYP1B1; details: Chinese hamster, V79mzhu1B1 cells (V79 cells that express CYP1B1)
Description: as §1

[7] = system: V79mzhu1B1 cells (express the enzyme CYP1B1); test: as above; details: V79 IC50 versus V791B1 IC50
Description: as §1

SMILES	IC50 at 48 h [4] [µM]	aromatic hydroxylation to hydroxylated metabolite [5]	IC50 at 48 h [6] [µM]	further results
COc1ccc(/C=C/c2ccc(OC)cc2)cc1 [Compound IIIb, (E)-(4,4′)-Dimethoxystilbene]				IC50 [1]: 8.3 µM; IC50 [2]: 58.2 µM
Oc1ccc(/C=C/c2cc(O)cc(O)c2)cc1 [Compound IIIc, (E)-(3,4′,5)-trihydroxystilbene]				aromatic hydroxylation to hydroxylated metabolite [3]: converted to the hydroxylated metabolite (E)-(3,3′,4,5′)-tetrahydroxystilbene
COc1ccc(/C=C(\C#N)c2cccnc2)cc1 [Compound IIa, (Z)-1-Cyano-1-(3-pyridyl)-2-(4-methoxyphenyl)ethene]	1.81	converted to the hydroxylated metabolite (Z)-1-Cyano-1-(3-pyridyl)-2-(3-hydroxy-4-methoxyphenyl)ethene	1.63	
COc1ccc(/C=C/C(=O)c2cc(OC)c(OC)c(OC)c2)cc1 [Compound VII, (E)-1-(4-Methoxyphenyl)-3-(3,4,5-trimethoxyphenyl)prop-1-en-3-one]	1	converted to the hydroxylated metabolite (E)-1-(3-Hydroxy4-methoxyphenyl)-3-(3,4,5-trimethoxyphenyl)prop-1-en-3-one	0.005	fold more cytotoxic to the cell line expressing CYP1B1 than to the parental cell line not expressing this enzyme [7]: around 200 fold
COc1cc(C(=O)/C=C/c2ccc(O)cc2)cc(OC)c1OC [Compound VIII, (E)-1-(4-Hydroxyphenyl)-3-(3,4,5-trimethoxyphenyl)prop-1-en-3-one]	1.81		1.71	

From patent publication US6677383B1, “Hydroxylation activated prodrugs” (De Montfort University, priority 1998, dated 2004)
